Measured values from US10532986B2, “Cyclic compound acting as PDE4 inhibitor” (MEDSHINE DISCOVERY INC., priority 2016, dated 2020).

target: T1, Recombinant human PDE4B (Homo sapiens, UniProt Q07343); experiment: Inhibitory activity of the compounds against PDE 4B (fluorescence polarization, Transcreener AMP2/GMP2); format: biochemical; conditions: recombinant human PDE4B (aa 305-end, GST tag); 1 μM cAMP; 1 hour at room temperature
T1 construct: amino acid 305-end; GST (N); made in house; host or cells: Sf9 insect cells (baculovirus)
T1 sequence (Q07343 305-736 limits assumed): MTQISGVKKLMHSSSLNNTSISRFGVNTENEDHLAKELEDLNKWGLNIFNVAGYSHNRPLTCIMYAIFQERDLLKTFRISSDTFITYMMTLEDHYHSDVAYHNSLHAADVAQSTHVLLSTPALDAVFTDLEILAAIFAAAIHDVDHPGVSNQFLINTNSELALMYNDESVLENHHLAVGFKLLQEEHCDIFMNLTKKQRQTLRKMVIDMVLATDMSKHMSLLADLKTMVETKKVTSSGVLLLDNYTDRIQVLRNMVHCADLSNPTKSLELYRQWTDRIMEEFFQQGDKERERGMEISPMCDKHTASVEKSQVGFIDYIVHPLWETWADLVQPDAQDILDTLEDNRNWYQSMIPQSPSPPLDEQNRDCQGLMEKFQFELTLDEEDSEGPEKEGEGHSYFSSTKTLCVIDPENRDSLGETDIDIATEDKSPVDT
Experimental: Inhibitory activity of the compounds against PDE 4B
The assay is based on the fluorescence polarization measuring AMP/GMP production as a result of the enzyme activity by displacement of Tracer binding to the AMP/GMP antibody.
10 mM Tris-HCl (pH 7.5), 5 mM MgCl2, 0.01% Brij 35, 1 mM DTT and 1% DMSO.
Recombinant human PDE4B (Gene accession number: NM_002600; amino acid 305-end) was expressed by baculovirus in Sf9 insect cells using an N-terminal GST tag. MW=78 kDa.
Transcreener® AMP^2/GMP^2 antibody and AMP^2/GMP^2 AlexaFluor 633 tracer
i) Recombinant human PDE4B and the enzyme substrate (1 μM cAMP) were dissolved in the newly-prepared buffer solution, respectively.
ii) The PDE4B buffer solution defined as above was transferred into the reaction wells.
iii) The compound which was dissolved in 100% DMSO was added to the reaction wells of the PDE4B buffer solution by Acoustic technology (Echo550; nanoliter range) and incubated at room temperature for 10 minutes.
iv) The enzymatic buffer solution was then added to the reaction wells defined as above to initiate the reaction.
v) The reaction was incubated at room temperature for 1 hour.
vi) The reaction was terminated by adding detecting mixture (Transcreener® AMP^2/GMP^2 antibody and AMP^2/GMP^2 AlexaFluor 633 tracer) and incubated for 90 minutes with gentle mixing. The measurement range of fluorescence polarization is Ex/Em=620/688.
The fluorescence polarization signal was converted into nM based on the AMP/GMP standard curve and the percent enzyme activity relative to DMSO calculated by Excel. GraphPad Prism was used to plot the curves (Drawing Medicine Icon)

SMILES	IC50 [nM]
CCOc1cc([C@@H](CS(C)(=O)=O)n2c(=O)n(CC)c3cc(-c4ccccc4F)ccc32)ccc1OC [WX069]	0.477
CCOc1cc([C@@H](CS(C)(=O)=O)n2c(=O)n(C(C)C)c3cc(-c4ccccc4F)ccc32)ccc1OC [WX070]	1.25
CCOc1cc([C@@H](CS(C)(=O)=O)n2c(=O)n(CC#N)c3cc(-c4ccccc4F)ccc32)ccc1OC [WX071]	< 0.5
COc1ccc(C(CS(C)(=O)=O)n2c(=O)[nH]c3cc(-c4ccccc4F)ccc32)cc1 (stereo not shown) [WX076]	21.8
CCOc1cc([C@@H](CS(C)(=O)=O)n2c(=O)[nH]c3c(-c4cnn(C)c4)cccc32)ccc1OC [WX078]	0.822
CCOc1cc([C@@H](CS(C)(=O)=O)n2c(=O)[nH]c3c(C(C)C)cccc32)ccc1OC [WX079]	2.53
CCOc1cc([C@@H](CS(C)(=O)=O)n2c(=O)[nH]c3c(C4CCOCC4)cccc32)ccc1OC [WX081]	1.38
CCOc1cc([C@@H](CS(C)(=O)=O)n2c(=O)[nH]c3c(-c4ccccc4OC)cccc32)ccc1OC [WX082]	< 0.5
CCOc1cc([C@@H](CS(C)(=O)=O)n2c(=O)[nH]c3c(-c4ccccc4F)cccc32)ccc1OC [WX087]	1.29
CCOc1cc([C@@H](CS(C)(=O)=O)n2c(=O)[nH]c3c(-c4ccc(F)cc4)cccc32)ccc1OC [WX089]	2.52
CCOc1cc([C@@H](CS(C)(=O)=O)n2c(=O)[nH]c3c(-c4ccccc4)cccc32)ccc1OC [WX090]	0.341
C=C(C)c1cccc2c1[nH]c(=O)n2[C@H](CS(C)(=O)=O)c1ccc(OC)c(OCC)c1 [WX092]	2.15
CCOc1cc([C@@H](CS(C)(=O)=O)n2c(=O)[nH]c3c(-c4cccs4)cccc32)ccc1OC [WX093]	1.25
CCOc1cc([C@@H](CS(C)(=O)=O)n2c(=O)[nH]c3c(-c4nccs4)cccc32)ccc1OC [WX095]	6.58
CCOc1cc([C@@H](CS(C)(=O)=O)n2c(=O)[nH]c3c(-c4ncc(F)cn4)cccc32)ccc1OC [WX096]	7.3
CCOc1cc([C@@H](CS(C)(=O)=O)n2c(=O)[nH]c3c(-c4ncccc4F)cccc32)ccc1OC [WX097]	5.04
CCOC(=O)c1cccc2c1[nH]c(=O)n2[C@H](CS(C)(=O)=O)c1ccc(OC)c(OCC)c1 [WX098]	18.1

Second part, the compound after the results:

IC50 [nM]	SMILES
0.707	CCOc1cc([C@@H](CS(C)(=O)=O)n2c(=O)n(C)c3cc(-c4ccccc4F)ccc32)ccc1OC [WX068]
14.8	CCOC(=O)c1ccc2c(c1)n(CC(F)F)c(=O)n2[C@H](CS(C)(=O)=O)c1ccc(OC)c(OCC)c1 [WX072]
31.8	CCOC(=O)c1ccc2c(c1)n(CC(F)(F)F)c(=O)n2[C@H](CS(C)(=O)=O)c1ccc(OC)c(OCC)c1 [WX073]
10.2	CCOC(=O)c1ccc2c(c1)n(C)c(=O)n2[C@H](CS(C)(=O)=O)c1ccc(OC)c(OCC)c1 [WX074]
0.68	CCOc1cc(C(CS(C)(=O)=O)n2c(=O)[nH]c3cc(-c4ccccc4F)ccc32)ccc1OC(F)F (stereo not shown) [WX075]
46.8	CCOc1cc(C(CS(C)(=O)=O)n2c(=O)oc3cc(Br)ccc32)ccc1OC (stereo not shown) [WX077]
1.03	CCOc1cc([C@@H](CS(C)(=O)=O)n2c(=O)[nH]c3c(C4=CCOCC4)cccc32)ccc1OC [WX080]
< 0.5	CCOc1cc([C@@H](CS(C)(=O)=O)n2c(=O)[nH]c3c(-c4ccccc4C)cccc32)ccc1OC [WX083]
18.1	CCOc1cc([C@@H](CS(C)(=O)=O)n2c(=O)[nH]c3c(-n4cccn4)cccc32)ccc1OC [WX084]
5.64	CCOc1cc([C@@H](CS(C)(=O)=O)n2c(=O)[nH]c3c(C(=O)N4CCCC4)cccc32)ccc1OC [WX085]
36.2	CCOc1cc([C@@H](CS(C)(=O)=O)n2c(=O)[nH]c3c(C(C)=O)cccc32)ccc1OC [WX086]
2.4	CCOc1cc([C@@H](CS(C)(=O)=O)n2c(=O)[nH]c3c(-c4cccc(F)c4)cccc32)ccc1OC [WX088]
3.98	CCOc1cc([C@@H](CS(C)(=O)=O)n2c(=O)[nH]c3c(C4CC4)cccc32)ccc1OC [WX091]
< 0.5	CCOc1cc([C@@H](CS(C)(=O)=O)n2c(=O)[nH]c3c(Cc4ccccc4F)cccc32)ccc1OC [WX094]
